The text below walks through data of US6770261B2, “Magnetic resonance imaging agents for the detection of physiological agents” (Research Corporation Technologies, priority 1995, dated 2004).

For data set [1] the following is noted: for T1: 0.4 mM, 1 mM K2H2EGTA. On the procedure: The effect of Mg^2+ on the relaxivity of the complex
The T1 of the Gd^3+-complex (0.4 mM in the buffer containing 132 mM KC1, 10 mM MOPS, 1 mM K2H2EGTA, pH 7.20) was measured.

On data set [2], the source says:
FIG. 16 depicts the relaxivity of the CalGad complex as a function of calcium ion concentration.
The effect of Ca2^+ on the relaxivity of the complex

The conditions of data set [3]: for T1: 0.4 mM. As for the experimental part: The effect of pH on the relaxivity of the complex
The T1 of the Gd3^+-complex (0.4 mM in the buffer containing 100 mM KC1, 10 mM MOPS, 2 mM K2H2EGTA or 2 mM K2CaEGTA) was measured under different pH.

For data set [4] the following is noted: literature value used for comparison (Lauffer); cited from earlier work.
In data set [5] the target is T1, β-galactosidase (Escherichia coli, UniProt P00722). Particulars: for increase in signal (enhancement) in the presence of β-galactosidase: upon exposure to β-galactosidase.
Procedure: FIG. 9 depicts the change in T1 observed upon the β-galactosidase catalyzed cleavage of the galactopyranose residue (n=3). The first Column of each pair (1,3,5) represents the T1 of the galactose-DOTA complex and β-galactosidase mixture immediately after addition. The second column represents the T1 of the solution after a period of time in the presence of β-galactosidase. Each column is reported as a ratio to a control containing only the complex. Column 1 and 2: 2.0 mM Gd complex plus 1.7 uM β-galactosidase phosphate buffer (25 mM) pH 7.3. Column 3 and 4: 2.0 mM Gd plus 5.1 uM β-galactosidase phosphate buffer (25 mM) pH 7.3. Column 5 and 6: 2 mM Gd complex plus 5.1 uM heat inactivated β-galactosidase (10 minutes at 80 degrees) phosphate buffer (25 mM) pH 7.3. […] A minimal concentration of enzyme was used in these experiments to reduce potential effects of any contrast agent-enzyme interactions. T1 were carried out using a Bruker AMX 500 spectrometer at 26 degrees using a standard inversion-recovery sequence. The solution was placed in a 40 ul round bottomed NMR tube insert (Wilmad glass) and inserted into a tube containing d3-chloroform. A two dimensional data file was collected containing 16 different inversion delays with 8 scans each. The raw nmr data was processed (Felix, BIOSYM/Molecular Simulations, San Diego, Calif.) and the peak heights were fitted to an exponential rise to a max to obtain T1.
The effect of the enzymatic cleavage of the galactopyranose on the T1 of the complex was assessed using NMR spectroscopy.
The effect of the enzymatic cleavage of the galactopyranose unit from EGadMe and CarboxyMe on relaxation time T1 was determined by NMR spectroscopy at 500 MHz and 24° C. Various aqueous solutions of 0.5 mM EGadMe and CarboxyMe, respectively, were prepared, containing either: (a) no enzyme; (b) heat inactivated 5 μM β-galactosidase that was treated at 80° C. for 10 min; (c) 5 μM β-galactosidase where T1 was measured immediately after mixing; or (d) 5 μM β-galactosidase that was reacted with the complex for 3.5 days at 37° C.
Data set [6] can be described thus: Relaxivity R by NMR spectroscopy at 500 MHz. The class given is physicochemical. More on the design: unit not given here.
Data set [7] concerns the target T1, β-galactosidase.
Source text: Characterization: The ability of β-galactosidase to remove the galactopyranosal blocking group from GadGal was examined by HPLC. The cleavage reaction was monitored using the distinct retention times of the complex and the complex without the galactopyranose residue.

Read-outs that look alike come from different tables or passages of the source.

T1 sequence (P00722 2-1024): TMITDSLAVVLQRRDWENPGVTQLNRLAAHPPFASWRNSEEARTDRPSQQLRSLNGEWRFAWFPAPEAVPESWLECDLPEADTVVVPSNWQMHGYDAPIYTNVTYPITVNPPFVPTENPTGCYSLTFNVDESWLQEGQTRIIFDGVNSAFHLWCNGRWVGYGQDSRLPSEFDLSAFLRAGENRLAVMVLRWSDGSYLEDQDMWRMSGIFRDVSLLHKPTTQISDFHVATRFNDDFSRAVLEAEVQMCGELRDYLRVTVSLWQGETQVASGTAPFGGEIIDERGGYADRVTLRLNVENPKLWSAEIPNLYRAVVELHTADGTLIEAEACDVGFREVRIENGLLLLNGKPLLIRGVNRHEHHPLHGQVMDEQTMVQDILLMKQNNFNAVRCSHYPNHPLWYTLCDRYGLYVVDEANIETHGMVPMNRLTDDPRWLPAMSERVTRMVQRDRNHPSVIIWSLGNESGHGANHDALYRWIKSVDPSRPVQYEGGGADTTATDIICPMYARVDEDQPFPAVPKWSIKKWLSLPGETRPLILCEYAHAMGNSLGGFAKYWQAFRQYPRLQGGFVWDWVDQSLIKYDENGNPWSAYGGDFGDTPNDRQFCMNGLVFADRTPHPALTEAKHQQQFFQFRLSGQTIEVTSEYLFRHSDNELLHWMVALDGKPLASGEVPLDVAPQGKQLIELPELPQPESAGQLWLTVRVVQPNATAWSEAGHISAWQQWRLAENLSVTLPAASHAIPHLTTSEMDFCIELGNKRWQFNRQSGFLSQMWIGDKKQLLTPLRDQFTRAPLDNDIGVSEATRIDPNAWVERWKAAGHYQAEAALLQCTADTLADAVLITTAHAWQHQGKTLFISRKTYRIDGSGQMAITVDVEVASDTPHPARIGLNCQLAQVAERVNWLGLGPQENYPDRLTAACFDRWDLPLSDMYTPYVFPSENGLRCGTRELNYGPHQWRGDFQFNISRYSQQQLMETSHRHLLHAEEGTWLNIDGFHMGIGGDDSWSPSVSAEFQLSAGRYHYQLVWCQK

For `O=C([O-])CN1CCN(CCCOc2cccc(OCCOc3cccc(OCCCN4CCN(CC(=O)[O-])CCN(CC(=O)[O-])CCN(CC(=O)[O-])CC4)c3N(CC(=O)O)CC(=O)O)c2N(CC(=O)O)CC(=O)O)CCN(CC(=O)[O-])CCN(CC(=O)[O-])CC1.[Gd+3].[Gd+3]` [CalGad, Gd^3+-BAPTA-DO3A2], the T1 in data set [1] (pH 7.20, Mg^2+ 0 mM) was found to be 607 ms; in data set [1] (pH 7.20, Mg^2+ 1 mM) it was 602 ms; in data set [1] (pH 7.20, Mg^2+ 2 mM), 601 ms; in data set [1] (pH 7.20, Mg^2+ 5 mM), 609 ms; in data set [1] (pH 7.20, Mg^2+ 10 mM), 607 ms; in data set [1] (pH 7.20, Mg^2+ 20 mM) it was 610 ms. Moreover, the T1 in data set [3] (2 mM K2CaEGTA, pH 6.80) was 390 ms; in data set [3] (2 mM K2CaEGTA, pH 7.00) it was 393 ms; in data set [3] (2 mM K2CaEGTA, pH 7.20) it was 394 ms; in data set [3] (2 mM K2CaEGTA, pH 7.40) it was 397 ms; in data set [3] (2 mM K2H2EGTA, pH 6.80), 600 ms; in data set [3] (2 mM K2H2EGTA, pH 7.00) it was 605 ms. For the same compound, the T1 worked out at 604 ms in data set [3] (2 mM K2H2EGTA, pH 7.20) and 608 ms in data set [3] (2 mM K2H2EGTA, pH 7.40). In addition, in data set [1] (Mg^2+ 0 to 20 mM), the “effect of changing Mg^2+ concentration on the relaxivity” value was “minimum effects”. In addition, the “relaxivity R” value in data set [2] (in the absence of Ca^2+) was 3.03 mM⁻¹ s⁻¹; in data set [2] (in the presence of Ca^2+) it was 5.53 mM⁻¹ s⁻¹. For the same compound, the “effect of changing pH on the relaxivity” value in data set [3] (pH 6.80 to 7.40, in the presence or absence of Ca^2+) is given as “minimum effects”.
Take `O=C([O-])CN1CCN(CC(=O)[O-])CCN(CC(=O)O)CCN(CC(=O)[O-])CC1.[Gd+3]` [Gd-DOTA]: in data set [4], the “q (number of coordinating water molecules)” value is given as 1.2.
In the case of “Do3a-hydroxyethyl-beta-galactose Gadolinium complex [GadGal]”, the “difference between measured T1 values in the presence and absence of β-galactosidase” value at β-galactosidase [5] (2.0 mM Gd complex, 1.7 or 5.1 uM β-galactosidase, pH 7.3, 500 MHz) is reported as 20%. Further, the “change of solution T1 with heat inactivated enzyme” value at β-galactosidase [5] (control, heat inactivated β-galactosidase) was “no decrease”. For the same compound, the “increase in signal (enhancement) in the presence of β-galactosidase” value on β-galactosidase [5] (listed as Example 1 compound) is “roughly 20%”; on β-galactosidase [5] (listed as galactose-DOTA structure of Example 1), about 20%. Moreover, the “relaxivity R” value in data set [6] came to 1800. The “cleavage of galactopyranose (HPLC traces)” value on β-galactosidase [7] (incubated with β-galactosidase for 7 days, phosphate buffer pH 7.3) is listed as “greater than 95%”. Moreover, at β-galactosidase [7] (native vs heat-inactivated β-galactosidase), the “enzymatic processing of the complex (HPLC)” value is “enzymatic processing of the complex by native but not heat-treated enzyme”.
